Assay results as given in patent publication US12595267B2, “Preparation method for amide compound and application thereof in field of medicine” (Shanghai Synergy Pharmaceutical Sciences Co., Ltd., priority 2019, dated 2026).
Where two headings read alike, the source gives them in different places.

Experiments:
WSU-DLCL2 cells = test: Calcein AM proliferation assay, WSU-DLCL2 cells; assay type: cell-based, human; details: Homo sapiens, read-out: WSU-DLCL2 proliferation IC50
Protocol: By observing under a microscope, it was confirmed that the cells are in good condition. The cells were transferred to a 15 mL centrifuge tube, which was centrifuged at 1000 rpm for 5 minutes.
Gradient dilutions of the compounds in DMSO were performed, and a compound plate with a final concentration of 500-fold was prepared. 1.2 μL of 500× compound was pipetted, transferred to 200 μL medium, and pipetted to mix well to obtain a 3× compound intermediate plate. 50 μL 3× compound is pipetted and added to the cell plate according to the set arrangement.
The cells of the above concentration were inoculated in 96-well plates, 100 μL/well (the number of cells in each well is 10,000). The cell plate was placed in a carbon dioxide incubator for 4 days. The cell plate was taken out. After mixed uniformly, a certain volume of cell suspension was drawn, and stained with Calcein AM. The number of cells in each well was counted with Acumen. According to the number of detected cells, 10,000 cells were re-inoculated in 96-well plates. As above, the compound was added. After placed in a carbon dioxide incubator for 3 days (day 7). The cell plate was taken out again. After mixed uniformly, a certain volume of cell suspension was drawn, stained with Calcein AM. The number of cells in each well was counted with Acumen. The cells were cultured for another 4 days (day 11), and the cell plate was taken out for the third time. After mixed uniformly, a certain volume of cell suspension was drawn, and stained with Calcein AM. The number of cells in each well was counted with Acumen. According to the number of detected cells, 10,000 cells were re-inoculated in 96-well plates. As above, the compound was added. […] After Calcein AM staining, the number of the cells was counted to obtain the final count result. The data of day 14 was processed to obtain the corresponding half-inhibitory concentration (IC50).
Using GraphPad Prism 5 software, a non-linear regression model was used to draw the S-type dose-survival rate curve and to calculate the IC50 value.

Pfeiffer cells = test: Calcein AM proliferation assay, Pfeiffer cells; assay type: cell-based, human; details: Homo sapiens, Pfeiffer, read-out: Pfeiffer proliferation IC50
Karpas 422 cells = test: Calcein AM proliferation assay, Karpas 422 cells; assay type: cell-based, human; details: Homo sapiens, read-out: Karpas422 proliferation IC50
[1] = Pharmacokinetics experiment in rats; assay type: in vivo; details: rat, plasma, male SD rats; for bioavailability: oral 20 mg/kg vs intravenous 4 mg/kg, read-out: Bioavailability (F %); for AUC: read-out: Area under the curve (AUC); for half-life: read-out: Half life (T1/2) (converted); for Cmax: read-out: Blood drug level (Cmax)
Protocol: Male SD rats weighing 200-300 g and 8 weeks old were used as experimental animals. […] The pharmacokinetic behavior of the compound of the present invention in rats was studied, and the pharmacokinetic characteristics thereof were evaluated.
A certain amount of the compound was weighed, dissolved in 0.10% tween for vortex and ultrasound, and then 0.5% sodium carboxymethyl cellulose (CMC-Na) solution was added to prepare a uniform solution.
The above-mentioned compounds were applied intravenously and orally to rats at a dose of 4 mg/kg and a dose of 20 mg/kg, respectively. At 0.083 h, 0.25 h, 0.5 h, 1.0 h, 2.0 h, 4.0 h, 6.0 h, 8.0 h, 12.0 h, and 24.0 h after application, 0.2 mL of blood was collected from the orbit, and placed in an anticoagulant tube, which was centrifuged at 6000 rpm for 10 minutes at 4° C. The plasma was separated and stored at −80° C.

wild-type EZH2 = wild-type EZH2 (Homo sapiens, UniProt Q15910); test: Radiometric assay of activity on wild-type PRC2 EZH2
Sequence of wild-type EZH2 (Q15910 whole entry): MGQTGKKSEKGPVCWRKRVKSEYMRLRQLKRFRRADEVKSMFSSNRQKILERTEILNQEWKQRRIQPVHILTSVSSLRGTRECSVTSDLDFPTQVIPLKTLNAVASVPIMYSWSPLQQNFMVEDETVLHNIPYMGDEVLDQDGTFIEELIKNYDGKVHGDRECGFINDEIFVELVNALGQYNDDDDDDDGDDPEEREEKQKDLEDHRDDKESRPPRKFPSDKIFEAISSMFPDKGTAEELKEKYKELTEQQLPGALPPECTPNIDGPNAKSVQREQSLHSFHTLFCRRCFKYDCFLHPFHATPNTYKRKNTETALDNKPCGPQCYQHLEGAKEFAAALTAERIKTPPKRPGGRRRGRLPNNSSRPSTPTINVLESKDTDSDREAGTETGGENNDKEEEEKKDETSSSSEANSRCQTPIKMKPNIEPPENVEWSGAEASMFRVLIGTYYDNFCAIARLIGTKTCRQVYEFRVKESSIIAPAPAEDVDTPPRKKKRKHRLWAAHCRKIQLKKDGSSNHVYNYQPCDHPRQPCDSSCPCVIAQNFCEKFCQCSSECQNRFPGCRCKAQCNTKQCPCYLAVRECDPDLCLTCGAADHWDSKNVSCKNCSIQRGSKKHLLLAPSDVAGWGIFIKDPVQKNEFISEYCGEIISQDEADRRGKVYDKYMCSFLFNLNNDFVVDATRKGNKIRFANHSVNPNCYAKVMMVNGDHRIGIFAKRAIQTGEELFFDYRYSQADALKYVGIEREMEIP
Sequence of wild-type EZH2 (O75530 whole entry partner): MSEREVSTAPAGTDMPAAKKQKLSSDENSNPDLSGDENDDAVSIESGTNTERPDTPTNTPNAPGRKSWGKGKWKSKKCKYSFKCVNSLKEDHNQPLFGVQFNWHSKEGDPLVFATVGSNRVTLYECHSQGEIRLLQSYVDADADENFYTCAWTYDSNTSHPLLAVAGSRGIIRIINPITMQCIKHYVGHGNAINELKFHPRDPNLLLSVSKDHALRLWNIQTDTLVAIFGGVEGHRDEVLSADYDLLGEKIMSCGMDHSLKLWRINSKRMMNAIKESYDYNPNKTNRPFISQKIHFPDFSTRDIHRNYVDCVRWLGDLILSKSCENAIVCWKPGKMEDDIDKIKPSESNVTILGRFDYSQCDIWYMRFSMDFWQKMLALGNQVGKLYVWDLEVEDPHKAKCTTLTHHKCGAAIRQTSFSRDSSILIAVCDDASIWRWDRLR
Sequence of wild-type EZH2 (Q15022 whole entry partner): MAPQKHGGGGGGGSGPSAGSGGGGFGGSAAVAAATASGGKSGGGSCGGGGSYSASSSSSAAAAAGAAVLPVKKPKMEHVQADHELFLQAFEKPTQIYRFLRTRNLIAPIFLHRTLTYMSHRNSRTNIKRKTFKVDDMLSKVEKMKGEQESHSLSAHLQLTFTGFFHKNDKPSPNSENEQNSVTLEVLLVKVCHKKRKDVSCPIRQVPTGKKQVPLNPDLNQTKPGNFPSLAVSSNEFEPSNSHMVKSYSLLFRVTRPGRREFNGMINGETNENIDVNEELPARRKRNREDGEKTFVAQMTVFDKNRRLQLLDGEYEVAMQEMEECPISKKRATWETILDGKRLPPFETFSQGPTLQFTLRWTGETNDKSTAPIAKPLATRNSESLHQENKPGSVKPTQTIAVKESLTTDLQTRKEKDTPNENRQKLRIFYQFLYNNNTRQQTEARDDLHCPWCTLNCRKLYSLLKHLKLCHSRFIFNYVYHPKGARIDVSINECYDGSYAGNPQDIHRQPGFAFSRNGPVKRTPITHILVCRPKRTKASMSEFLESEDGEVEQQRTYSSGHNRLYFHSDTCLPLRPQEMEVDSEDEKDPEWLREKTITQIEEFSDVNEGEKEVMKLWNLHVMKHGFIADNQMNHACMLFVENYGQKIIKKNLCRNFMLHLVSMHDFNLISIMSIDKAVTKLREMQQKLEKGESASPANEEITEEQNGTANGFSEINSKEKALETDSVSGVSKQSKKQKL
Sequence of wild-type EZH2 (Q09028 whole entry partner): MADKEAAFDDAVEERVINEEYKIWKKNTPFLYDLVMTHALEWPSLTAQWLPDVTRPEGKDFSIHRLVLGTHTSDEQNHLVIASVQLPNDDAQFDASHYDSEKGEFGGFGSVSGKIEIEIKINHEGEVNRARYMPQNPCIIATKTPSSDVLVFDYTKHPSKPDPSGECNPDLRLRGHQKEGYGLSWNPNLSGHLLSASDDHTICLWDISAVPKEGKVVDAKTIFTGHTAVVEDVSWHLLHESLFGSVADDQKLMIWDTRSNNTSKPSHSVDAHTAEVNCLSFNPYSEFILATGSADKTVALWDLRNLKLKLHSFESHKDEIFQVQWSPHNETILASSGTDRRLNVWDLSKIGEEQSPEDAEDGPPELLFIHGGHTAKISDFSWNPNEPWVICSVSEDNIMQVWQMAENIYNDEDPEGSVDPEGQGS
Protocol: 10 microliters (μL) of the compound of the test example and wild-type EZH2 were added to each well. After being incubated at room temperature for 15 minutes, peptides and [3H]-labeled methyl donor S-adenosylmethionine (SAM) were added. After reacting at room temperature for 1 hour (h), cold SAM was added to terminate the reaction. 25 μl reaction solution was transferred to the scintillation plate. After incubating for 1 hour (h) at room temperature, the plate was washed three times with deionized water and 0.1% Tween 20. The value was read with a PerkinElmer liquid scintillation/luminescence counter, and the half inhibitory concentration (IC50) of the compound was calculated with the Prism 5 software (GraphPad Prism 5).

Mutant EZH2 (A677G) = molecular target: T1, Mutant EZH2 (A677G) (Homo sapiens, UniProt Q15910, A677G); test: AlphaLISA assay on mutant PRC2 complex, EZH2 A677G; assay type: biochemical
T1 construct: purchased BPS 51004
T1 sequence (Q15910 whole entry A677G): as the sequence (Q15910 whole entry) above, with A677G counted along it
T1 sequence (O75530 whole entry partner): as the sequence (O75530 whole entry partner) above
T1 sequence (Q15022 whole entry partner): as the sequence (Q15022 whole entry partner) above
T1 sequence (Q09028 whole entry partner): as the sequence (Q09028 whole entry partner) above
T1 sequence (Q6ZN18 whole entry partner): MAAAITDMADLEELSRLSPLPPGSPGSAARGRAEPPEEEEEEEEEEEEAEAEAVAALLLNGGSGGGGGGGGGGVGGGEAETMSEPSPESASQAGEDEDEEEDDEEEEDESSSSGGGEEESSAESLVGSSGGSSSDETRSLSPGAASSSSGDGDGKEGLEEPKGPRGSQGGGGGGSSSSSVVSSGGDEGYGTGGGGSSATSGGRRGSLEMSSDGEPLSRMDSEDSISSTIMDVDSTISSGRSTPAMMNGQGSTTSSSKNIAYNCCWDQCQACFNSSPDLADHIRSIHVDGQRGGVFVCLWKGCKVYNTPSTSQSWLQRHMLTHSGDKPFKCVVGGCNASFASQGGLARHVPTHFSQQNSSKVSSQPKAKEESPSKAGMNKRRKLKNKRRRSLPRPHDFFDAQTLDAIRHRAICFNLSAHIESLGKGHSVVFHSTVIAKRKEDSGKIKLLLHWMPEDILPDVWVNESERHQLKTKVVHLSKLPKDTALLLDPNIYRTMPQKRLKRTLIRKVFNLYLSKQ
Protocol: Detection Method: AlphaLISA
(§1) Finally, 15 μl detection solution mixture was added under low light, and incubated at room temperature for 60 minutes, and read the value.

Mutant EZH2 (Y641N) = molecular target: T2, Mutant EZH2 (Y641N) (Homo sapiens, UniProt Q15910, Y641N); test: AlphaLISA assay on mutant PRC2 complex, EZH2 Y641N; assay type: biochemical
T2 construct: purchased BPS 51004
T2 sequence (Q15910 whole entry Y641N): as the sequence (Q15910 whole entry) above, with Y641N counted along it
T2 sequence (O75530 whole entry partner): as the sequence (O75530 whole entry partner) above
T2 sequence (Q15022 whole entry partner): as the sequence (Q15022 whole entry partner) above
T2 sequence (Q09028 whole entry partner): as the sequence (Q09028 whole entry partner) above
T2 sequence (Q6ZN18 whole entry partner): as the sequence (Q6ZN18 whole entry partner) above
Protocol: Detection Method: AlphaLISA
as §1

Mutant EZH2 (Y641F) = molecular target: T3, Mutant EZH2 (Y641F) (Homo sapiens, UniProt Q15910, Y641F); test: AlphaLISA assay on mutant PRC2 complex, EZH2 Y641F; assay type: biochemical
T3 construct: purchased BPS 51004
T3 sequence (Q15910 whole entry Y641F): as the sequence (Q15910 whole entry) above, with Y641F counted along it
T3 sequence (O75530 whole entry partner): as the sequence (O75530 whole entry partner) above
T3 sequence (Q15022 whole entry partner): as the sequence (Q15022 whole entry partner) above
T3 sequence (Q09028 whole entry partner): as the sequence (Q09028 whole entry partner) above
T3 sequence (Q6ZN18 whole entry partner): as the sequence (Q6ZN18 whole entry partner) above
Protocol: Detection Method: AlphaLISA
as §1

[2] = WSUDLCL2, day 14 data, Calcein AM staining
[3] = day 14 data, Calcein AM staining
[4] = KARPAS-422, day 14 data, Calcein AM staining

SMILES | IC50 (Karpas 422 cells; [4]) [nM] | IC50 (wild-type EZH2) [nM] | IC50 (WSU-DLCL2 cells; [2]) [nM] | IC50 (Pfeiffer cells; [3]) [nM] | further results
CCN(c1cc(-c2ccc3c(c2)CCC3N2CCOCC2)cc(C(=O)NCc2c(OC)cc(C)[nH]c2=O)c1C)C1CCOCC1 (centres unmarked) [Compound 6, 3-(ethyl(tetrahydro-2H-pyran-4-yl)amino)-N-((4-methoxy-6-methyl-2-oxo-1,2-dihydropyridin-3-yl)methyl)-2-methyl-5-(1-morpholino-2,3-dihydro-1H-inden-5-yl)benzamide] | 4.15 | 0.52 | 5.13 | 3.2 | bioavailability [1]: 33.3%; AUC ([1]; intravenous dosing 4 mg/kg): 966 ng·h/mL; half-life ([1]; intravenous dosing 4 mg/kg): 1.12 h; AUC ([1]; oral dosing 20 mg/kg): 1610 ng·h/mL; Cmax ([1]; oral dosing 20 mg/kg): 456 ng/mL
CCN(c1cc(N2Cc3ccc(NC4CCOCC4)cc3C2)cc(C(=O)NCc2c(C)cc(C)[nH]c2=O)c1C)C1CCOCC1 [Compound 23] | 4.09 | 0.89 | 6.48 | 4.36 | IC50 (Mutant EZH2 (A677G)): 0.66 nM; IC50 (Mutant EZH2 (Y641N)): 0.5 nM
CCN(c1cc(-c2cc3c(cc2F)C(N2CCOCC2)CC3)cc(C(=O)NCc2c(C)cc(C)[nH]c2=O)c1C)C1CCOCC1 (centres unmarked) [Compound 24] | 4.47 | 0.87 | 5.28 | 2.96 | IC50 (Mutant EZH2 (A677G)): 0.61 nM
CCN(c1cc(-c2ccc3c(c2)C(C)(C)CC3N2CCOCC2)cc(C(=O)NCc2c(C)cc(C)[nH]c2=O)c1C)C1CCOCC1 (centres unmarked) [Compound 27] | – | – | 1.71 | – | –
CCN(c1cc(-c2ccc(C3(C#N)CCOCC3)cc2)c(Cl)c(C(=O)NCc2c(C)cc(C)[nH]c2=O)c1C)C1CCOCC1 [Compound 9, 2-chloro-4′-(4-cyanotetrahydro-2H-pyran-4-yl)-N-((4,6-dimethyl-2-oxo-1,2-dihydropyridin-3-yl)methyl)-5-(ethyl(tetrahydro-2H-pyran-4-yl)amino)-4-methyl-[1,1′-biphenyl]-3-formamide] | 4.15 | 0.9 | 4.68 | 3.47 | IC50 (Mutant EZH2 (Y641F)): 0.48 nM
CCN(c1cc(-c2ccc3c(c2)CCC3N2CCOCC2)cc(C(=O)NCc2c(C)cc(C)[nH]c2=O)c1C)C1CC(C)OC(C)C1 (centres unmarked) [Compound 13, N-((4,6-dimethyl-2-oxo-1,2-dihydropyridin-3-yl)methyl)-3-((2,6-dimethyltetrahydro-2H-pyran-4-yl)(ethyl)amino)-2-methyl-5-(1-morpholino-2,3-di hydro-1H-inden-5-yl)benzamide] | – | 0.95 | – | – | IC50 (Mutant EZH2 (Y641F)): 0.81 nM; IC50 (WSU-DLCL2 cells; WSUDLCL2, […]): 1.28 nM; IC50 (Pfeiffer cells; […]): 0.87 nM; IC50 (Karpas 422 cells; KARPAS-422, […]): 0.95 nM; bioavailability [1]: 34.5%; AUC ([1]; intravenous dosing 4 mg/kg): 977 ng·h/mL; half-life ([1]; intravenous dosing 4 mg/kg): 1.34 h; AUC ([1]; oral dosing 20 mg/kg): 1690 ng·h/mL; Cmax ([1]; oral dosing 20 mg/kg): 403 ng/mL
CCN(c1cc(-c2ccc(C3(C#N)CCOCC3)cc2)cc(C(=O)NCc2c(C)cc(C)[nH]c2=O)c1C)C1CCOCC1 [Compound 1, 4′-(4-cyanotetrahydro-2H-pyran-4-yl)-N-((4,6-dimethyl-2-carbonyl-1,2-dihydropyridin-3-yl)methyl)-5-(ethyl(tetrahydro-2H-pyran-4-yl)amino)-4-methyl-[1,1′-biphenyl]-3-formamide] | – | – | – | – | IC50 (WSU-DLCL2 cells; WSUDLCL2, […]): 2.87 nM; IC50 (Pfeiffer cells; […]): 1.34 nM; IC50 (Karpas 422 cells; KARPAS-422, […]): 2.15 nM
CCN(c1cc(-c2cc(F)c3c(c2)CCC3N2CCOCC2)cc(C(=O)NCc2c(C)cc(C)[nH]c2=O)c1C)C1CCOCC1 (centres unmarked) [Compound 26] | 6.47 | – | 9.42 | 5.86 | –

Second part, led by results:

IC50 (Karpas 422 cells; [4]) [nM] | IC50 (wild-type EZH2) [nM] | SMILES | IC50 (WSU-DLCL2 cells; [2]) [nM] | IC50 (Pfeiffer cells; [3]) [nM] | further results
1.87 | 0.6 | CCN(c1cc(-c2ccc3c(c2)CCC3N2CCOCC2)c(F)c(C(=O)NCc2c(C)cc(C)[nH]c2=O)c1C)C1CCOCC1 (centres unmarked) [Compound 11, N-((4,6-dimethyl-2-oxo-1,2-dihydropyridin-3-yl)methyl)-3-(ethyl (tetrahydro-2H-pyran-4-yl)amino)-6-fluoro-2-methyl-5-(1-morpholino-2,3-dihydro-1H-inden-5-yl)benzamide] | 2.92 | 1.08 | IC50 (Mutant EZH2 (Y641F)): 0.54 nM; bioavailability [1]: 26.6%; AUC ([1]; intravenous dosing 4 mg/kg): 954 ng·h/mL; half-life ([1]; intravenous dosing 4 mg/kg): 1.34 h; AUC ([1]; oral dosing 20 mg/kg): 1270 ng·h/mL; Cmax ([1]; oral dosing 20 mg/kg): 489 ng/mL
3.76 | – | CCN(c1cc(-c2ccc3c(c2)CCC3N2CCOCC2)cc(C(=O)NCc2c(C)cc(C)[nH]c2=O)c1C)C1CCOC(C)C1 (centres unmarked) [Compound 14, N-((4,6-dimethyl-2-oxo-1,2-dihydropyridin-3-yl)methyl)-3-((2-methyltetrahydro-2H-pyran-4-yl)(ethyl)amino)-2-methyl-5-(1-morpholino-2,3-dihydro-1H-inden-5-yl)benzamide] | 4.15 | 2.89 | –
3.23 | – | CCN(c1cc(-c2ccc(C3(COC)CCOCC3)cc2)cc(C(=O)NCc2c(C)cc(C)[nH]c2=O)c1C)C1CCOCC1 [Compound 5, N-((4,6-dimethyl-2-carbonyl-1,2-dihydropyridin-3-yl)methyl)-5-(ethyl(tetrahydro-2H-pyran-4-yl)amino)-4′-(4-(methoxymethyl)tetrahydro-2H-pyran-4-yl)-4-methyl-[1,1′-biphenyl]-3-carboxamide] | 5.85 | 2.84 | –
2.5 | – | CCN(c1cc(-c2ccc(C3(CO)CCOCC3)cc2)cc(C(=O)NCc2c(C)cc(C)[nH]c2=O)c1C)C1CCOCC1 [Compound 3, N-((4,6-dimethyl-2-carbonyl-1,2-dihydropyridin-3-yl)methyl)-5-(ethyl(tetrahydro-2H-pyran-4-yl)amino)-4′-(4-(hydroxymethyl)tetrahydro-2H-pyran-4-yl)-4-methyl-[1,1′-biphenyl]-3-carboxamide] | 2.68 | 1.67 | –
0.58 | 0.63 | CCN(c1cc(-c2ccc3c(c2)CCC3N2CCOCC2)c(Cl)c(C(=O)NCc2c(C)cc(C)[nH]c2=O)c1C)C1CCOCC1 (centres unmarked) [Compound 10, 2-chloro-N-((4,6-dimethyl-2-oxo-1,2-dihydropyridin-3-yl)methyl)-5-(ethyl(tetrahydro-2H-pyran-4-yl)amino)-6-methyl-3-(1-morpholino-2,3-dihydro-1H-inden-5-yl)benzamide] | 1.17 | 0.38 | IC50 (Mutant EZH2 (Y641F)): 0.58 nM; IC50 (Mutant EZH2 (Y641N)): 0.3 nM; bioavailability [1]: 30.6%; AUC ([1]; intravenous dosing 4 mg/kg): 937 ng·h/mL; half-life ([1]; intravenous dosing 4 mg/kg): 1.64 h; AUC ([1]; oral dosing 20 mg/kg): 1440 ng·h/mL; Cmax ([1]; oral dosing 20 mg/kg): 405 ng/mL
1.08 | – | CCN(c1cc(-c2ccc(C3(C(=O)O)CCOCC3)cc2)cc(C(=O)NCc2c(C)cc(C)[nH]c2=O)c1C)C1CCOCC1 [Compound 2, 4-(3′-(((4,6-dimethyl-2-carbonyl-1,2-dihydropyridin-3-yl)methyl)carbamoyl)-5′-(ethyl(tetrahydro-2H-pyran-4-yl)amino)-4′-methyl-[1,1′-biphenyl]-4-yl)tetrahydro-2H-pyran-4-carboxylic Acid] | 1.58 | – | –
3.62 | – | CCN(c1cc(N2Cc3ccc(CN4CCOCC4)cc3C2)cc(C(=O)NCc2c(C)cc(C)[nH]c2=O)c1C)C1CCOCC1 [Compound 20, N-((4,6-dimethyl-2-oxo-1,2-dihydropyridin-3-yl)methyl)-3-(ethyl (tetrahydro-2H-pyran-4-yl)amino)-2-methyl-5-((5-morpholinomethyl)isoindolin-2-yl)benzamide] | 7.84 | 2.85 | –
3.67 | 0.71 | CCN(c1ccc2c(c1)CN(c1cc(C(=O)NCc3c(C)cc(C)[nH]c3=O)c(C)c(N(CC)C3CCOCC3)c1)C2)C1CCOCC1 [Compound 22, N-((4,6-dimethyl-2-oxo-1,2-dihydropyridin-3-yl)methyl)-3-(ethyl (tetrahydro-2H-pyran-4-yl)amino)-5-(5-(ethyl(tetrahydro-2H-pyran-4-yl)amino)isoindolin-2-yl)-2-methylbenzamide] | 6.38 | 1.87 | –
2.6 | – | CCN(c1cc(N2Cc3ccc(N(C)C)cc3C2)cc(C(=O)NCc2c(C)cc(C)[nH]c2=O)c1C)C1CCOCC1 [Compound 17, N-((4,6-dimethyl-2-oxo-1,2-dihydropyridin-3-yl)methyl)-5-(5-(dimethylamino)isoindolin-2-yl)-3-(ethyl(tetrahydro-2H-pyran-4-yl)amino)-2-methylbenzamide] | 3.71 | 1.27 | –
3.21 | 0.61 | C=CC(=O)Nc1ccc2c(c1)CN(c1cc(C(=O)NCc3c(C)cc(C)[nH]c3=O)c(C)c(N(CC)C3CCOCC3)c1)C2 [Compound 19, 5-(5-acrylamidoisoindolin-2-yl)-N-((4,6-dimethyl-2-oxo-1,2-dihydropyridin-3-yl)methyl)-3-(ethyl(tetrahydro-2H-pyran-4-yl)amino)-2-methylbenzamide] | 7.75 | 2.34 | IC50 (Mutant EZH2 (Y641N)): 0.08 nM
